The text below walks through data of the NIST ThermoML archive (doi:10.1016/j.tca.2010.05.009).

Numbers after ± are expanded uncertainties.

For this data set the following is noted: Crystal; Differential scanning calorimeter. On the technique in general: Differential scanning calorimetry records heat flow against a reference as temperature is scanned.

With `CC(C)Cc1ccc(C(C)C(=O)O)cc1` (stereo unspecified) [ibuprofen], the Normal melting temperature came out at 75.1 ± 1 °C.
